Data on 11 molecules can be found in PubChem BioAssay AID2060355 (Molecular Pharmacology Branch, DTP, NCI, 2025).

This assay relates to 485368-065-R4-J2-PDC spheroids with HUVEC/MSC, viability. Briefly: Anticancer human tumor 485368-065-R4-J2-PDC patient-derived pancreatic carcinoma cell line growth inhibition [TAK]. As to conditions: for viability, T/C: stronger effect = lower value. The text has this: Combinatorial screen of targeted agents with TAK-243 and ipatasertib in multi-cell type tumor spheroids
A high-throughput screen of multi-cell type tumor spheroids was designed to identify active combinations of targeted small molecules and TAK-243 or ipatasertib. Complex spheroids include a stromal component modeled by human endothelial cells (HUVEC) and fibroblasts modeled by human mesenchymal stem cells (MSCs). The concentration ranges selected for each drug and investigational agent were based upon clinically achievable concentrations if the clinical Cmax of the agent was known.
Compounds. The drugs and investigational agents: TAK-243 (785004), ipatasertib (767898), everolimus (733504), selumetinib (741078), bortezomib (756655), trametinib (758246), ixazomib (758254), vemurafenib (761431), dabrafenib (764134), sapanisertib (764658), alpelisib (765974), and copanlisib (816437), were obtained from the National Cancer Institute (NCI) Developmental Therapeutics Program Chemical Repository. The FDA-approved anticancer drug set is available from the NCI Developmental Therapeutics Program. […] The stock solutions were prepared in dimethyl sulfoxide (DMSO, Sigma-Aldrich, St. Louis, MO, cat. D2650) at 800-fold the tested concentration and stored at -70 degrees C prior to their use. All drugs and investigational agents were tested over a range starting from a high concentration at or near the clinical Cmax and decreasing in half-log increments. If the clinical Cmax for an agent had not been determined, the highest concentration tested was 10 microM.
NCI60 Cell Culture. NCI60 cell lines were obtained from the NCI Developmental Therapeutics Program Tumor Repository. For each lot of cells, the Repository performed Applied Biosystems AmpFLSTR Identifiler testing with PCR amplification to confirm consistency with the published Identifier STR profile for each cell line. Cells were kept in continuous culture for no more than 20 passages. The optimal seeding densities for each of the cell lines at each time point assessed were determined prior to performing the concentration response studies. Briefly, the NCI60 human tumor lines were grown as monolayers in RPMI 1640 medium supplemented with 10% FBS and 2 mmol/L L-glutamine.
An additional 2 lines were from the NCI60 cell line panel including melanomas, MALME-3M and SK-MEL-2. Pooled donor human umbilical vein endothelial cells (HUVEC, Lonza, cat. CC-2519) and human mesenchymal stem cells (hMSC, Lonza, cat. PT-2501) were purchased from Lonza (Walkersville, MD).
PDMR cell lines were grown in complete medium (DC medium): Dulbecco's modified Eagle's medium (DMEM)/F12 supplemented with 5% fetal bovine serum (FBS), 2 mM L-glutamine, 100 U/mL penicillin and 100 µg/ml streptomycin, 0.4 µg/ml hydrocortisone, 10 ng/ml epidermal growth factor (EGF) recombinant human protein, 24 µg/mL adenine, and 0.1 mg/mL primocin. During culture from frozen stock vials, PDMR cells were cultured in the same medium containing 10 µM Y-27632 (see Table 3). The PDCs were cultured in complete DMEM/F12 media without 10 microM Y-27632 dihydrochloride for at least two passages prior to the screen. The pooled donor HUVEC and hMSC were cultured in endothelial cell growth medium 2 (PromoCell, Heidelberg, Germany, cat. C-22011) and mesenchymal stem cell growth medium 2 (PromoCell, cat. C-28009), respectively. For all experiments, HUVEC and hMSC were used at passages </=5.
For the pre-screen, cell seeding densities were determined from a titration spanning the range from 5,000 to 313 cells per well. The mct-spheroids including 60% malignant cells, 25% HUVEC and 15% MSC dispensed as a mixture into U-bottom Ultra-Low Attachment 384-well plates (Corning, NY)
High-throughput Drug Combination Screening.
Prior to their inoculation into 384-well plates, malignant cells, HUVEC, and hMSC were removed from T flasks using TrypLE express (Thermo Fisher Scientific, cat. 12605036) and harvested by centrifugation for 5 min at 233 x g. […]

Where “and” joins values, the source holds several entries; their conditions need not be identical. Equal entries are not always repeated.
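Also: spheroids exposed to compounds for seven days before readout.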

Take `CC(=O)Nc1cccc(-n2c(=O)n(C3CC3)c(=O)c3c(Nc4ccc(I)cc4F)n(C)c(=O)c(C)c32)c1`: the viability, T/C was 99.6% and 93% (compound 94.9 pM); 77.8% and 84% (compound 0.0003 µM); 63.6% and 75.9% (compound 0.000949 µM); 62.5% and 71% (compound 0.003 µM); 45.7% and 50.3% (compound 0.00949 µM); 29.4% and 30.5% (compound 0.03 µM). Where the note is “curve of compound”, the IC50 is 5.19 nM and 10.4 nM.
Turning to `CC(C)(C)c1nc(-c2cccc(NS(=O)(=O)c3c(F)cccc3F)c2F)c(-c2ccnc(N)n2)s1`, the viability, T/C (compound 0.0316 µM) was 111% and 113%; the viability, T/C (compound 0.1 µM) was 101% and 105%; the viability, T/C (compound 0.316 µM) was 84.3% and 89.6%; the viability, T/C (compound 1 µM) is 57.7% and 75.8%; the viability, T/C (compound 3.16 µM) was 57% and 60.5%; the viability, T/C (compound 10 µM) was 49.8% and 54.4%. Also, where the note is “curve of compound”, the IC50 was more than 10000 nM.
For the molecule `CC(C)CC(NC(=O)C(Cc1ccccc1)NC(=O)c1cnccn1)B(O)O` (stereo unspecified), the viability, T/C is 108% and 103% (compound 31.6 pM); 101% (compound 0.0001 µM); 96.3% and 89.7% (compound 0.000316 µM); 99% and 102% (compound 0.001 µM); 107% and 114% (compound 0.00316 µM); 9.55% and 6.03% (compound 0.01 µM). For the setting “curve of compound”, the IC50 was 6.05 nM and 5.9 nM.
As to `CC(C)CC(NC(=O)CNC(=O)c1cc(Cl)ccc1Cl)B1OC(=O)CC(CC(=O)O)(C(=O)O)O1` (stereo unspecified), the viability, T/C reads like this: (compound 0.000316 µM) 94.9% and 95.6%; (compound 0.001 µM) 102% and 98.5%; (compound 0.00316 µM) 94.6% and 94.7%; (compound 0.01 µM) 108% and 110%; (compound 0.0316 µM) 61.6% and 60.1%; (compound 0.1 µM) 9.41% and 9.34%. Further, the IC50 (curve of compound) is 40.8 nM and 39.7 nM.
In the case of `CC(C)NCC(C(=O)N1CCN(c2ncnc3c2C(C)CC3O)CC1)c1ccc(Cl)cc1` (stereo unspecified), the viability, T/C is 95.9% [middle of 10 runs] (compound 0.3 µM); 94.7% [middle of 10 runs] (compound 0.949 µM); 99.1% [middle of 10 runs] (compound 3 µM); 91.6% [middle of 10 runs] (compound 9.49 µM); 78% [middle of 10 runs] (compound 30 µM). For the same molecule, the IC50 (compound alone, run of 02/20/2020) is more than 30000 nM.
Turning to `CC(C)n1nc(-c2ccc3oc(N)nc3c2)c2c(N)ncnc21`, the viability, T/C runs as follows: (compound 0.000316 µM) 102% and 92.5%; (compound 0.001 µM) 103% and 94.1%; (compound 0.00316 µM) 89.2% and 90.2%; (compound 0.01 µM) 87.3% and 94.1%; (compound 0.0316 µM) 63.8% and 72.8%; (compound 0.1 µM) 44.3% and 46.3%. The IC50 (curve of compound) was 72.5 nM and 85 nM.
With `CCCS(=O)(=O)Nc1ccc(F)c(C(=O)c2c[nH]c3ncc(-c4ccc(Cl)cc4)cc23)c1F`, the viability, T/C was 110% and 92.4% (compound 0.316 µM); 102% and 117% (compound 1 µM); 89.2% and 101% (compound 3.16 µM); 43.3% and 56.3% (compound 10 µM); 99.8% and 46.6% (compound 31.6 µM); 91.2% and 106% (compound 100 µM). For the same molecule, the IC50 (curve of compound) was more than 100000 nM.
For the molecule `COC1CC2CCC(C)C(O)(O2)C(=O)C(=O)N2CCCCC2C(=O)OC(C(C)CC2CCC(OCCO)C(OC)C2)CC(=O)C(C)C=C(C)C(O)C(OC)C(=O)C(C)CC(C)C=CC=CC=C1C` (stereo unspecified), the viability, T/C reads like this: (compound 0.000316 µM) 89.3% and 76.4%; (compound 0.001 µM) 95.4% and 82.8%; (compound 0.00316 µM) 91.1% and 89.1%; (compound 0.01 µM) 92.2% and 96.3%; (compound 0.0316 µM) 92.8% and 90.3%; (compound 0.1 µM) 88.8% and 86.1%. For the same molecule, the IC50 (curve of compound) is more than 100 nM.
For `COc1c(OCCCN2CCOCC2)ccc2c3n(c(=NC(=O)c4cnc(N)nc4)nc12)CCN3`, the viability, T/C by setting is: (compound 0.00316 µM) 95.2% and 89.6%; (compound 0.01 µM) 74.6% and 75.8%; (compound 0.0316 µM) 72.5% and 70.2%; (compound 0.1 µM) 56.2% and 51.2%; (compound 0.316 µM) 32.7% and 29.9%; (compound 1 µM) 29.5% and 26.7%. For the same molecule, the concentration for half-maximal inhibition (IC50) (curve of compound) is 126 nM and 96.9 nM.
As for `Cc1nc(NC(=O)N2CCCC2C(N)=O)sc1-c1ccnc(C(C)(C)C(F)(F)F)c1` (stereo unspecified), the viability, T/C was 100% and 99.2% (compound 0.0316 µM); 92.8% and 93% (compound 0.1 µM); 81.5% and 77.7% (compound 0.316 µM); 81.9% and 78.4% (compound 1 µM); 73.4% and 71.8% (compound 3.16 µM); 51% and 48.5% (compound 10 µM). In addition, under “curve of compound”, the IC50 is more than 10000 nM.
In the case of `Cn1cnc2c(F)c(Nc3ccc(Br)cc3Cl)c(C(=O)NOCCO)cc21`, the viability, T/C runs as follows: (compound 0.00949 µM) 70.9% and 67.5%; (compound 0.03 µM) 68.9% and 66.8%; (compound 0.0949 µM) 76.3% and 60.8%; (compound 0.3 µM) 64.8% and 51%; (compound 0.949 µM) 54.1% and 43.5%; (compound 3 µM) 36.9% and 30.2%. Further, the IC50 (curve of compound) is 1220 nM and 405 nM.

In general, viability, T/C refers to the result in the treated group divided by that in the control group, in per cent. The IC50 is the concentration at which inhibition is half-maximal.
